Activity calls are given as the source filed them. The calls are words filed in the database; no cut-off is given here.
Key:
[1] = test system: SGC-7901; test: Induction of morphological changes in human SGC-7901 cells assessed as varied size of nucleus at 0 to 30 nmol/L incubated for 48 hrs by DAPI staining based analysis; type: functional, cell-based; conditions: dose 0-30 nmol/L
[2] = test system: SGC-7901; test: Induction of cell cycle arrest in human SGC-7901 cells assessed as increase in p-Histone H3 protein expression incubated for 48 hrs by Western blot analysis; type: functional, cell-based; conditions: dose 0-30 nmol/L
[3] = test system: MGC-803; test: cells; conditions: Homo sapiens, MGC-803, 48 h
[4] = test system: ECa-109 cell line; test: Antiproliferative activity against human EC109 cells assessed as inhibition of cell growth incubated for 48 hrs by MTT assay; type: functional, cell-based; conditions: ECa-109, 48 h
[5] = test system: SGC-7901; test: Induction of apoptosis in human SGC-7901 cells assessed as activation of caspase-3 at 0 to 30 nmol/L incubated for 48 hrs by Western blot analysis; type: functional, cell-based; conditions: dose 0-30 nmol/L
[6] = test system: MGC-803; test: Induction of cell cycle arrest in human MGC-803 cells assessed as increase in p-Histone H3 protein expression incubated for 48 hrs by Western blot analysis; type: functional, cell-based; conditions: dose 0-24 nmol/L
[7] = Hepatotoxicity in BALB/c nude mouse xenografted with human MGC-803 cells assessed as effect on AST level at 25 mg/kg/day, ip administered every day for 21 days; type: toxicity, organism-based; conditions: in vivo, 504 h, time 21 day
[8] = test system: SGC-7901; test: Inhibition of cell migration in human SGC-7901 cells assessed as reduction in number of cells crossing membrane at 4 nmol/L measured after 48 hrs by transwell assay; type: functional, cell-based
[9] = test system: SGC-7901; test: Induction of morphological changes in human SGC-7901 cells assessed as appearance of oblate and bright cells at 0 to 30 nmol/L incubated for 48 hrs by bright field microscopic analysis; type: functional, cell-based; conditions: dose 0-30 nmol/L
[10] = test system: SGC-7901; test: Induction of cell cycle arrest in human SGC-7901 cells assessed as accumulation of cells at G2/M phase at 30 nmol/L incubated for 48 hrs (reference value: 32%); type: functional
[11] = test system: MGC-803; test: Induction of morphological changes in human MGC-803 cells assessed as appearance of broken nucleus at 24 nM incubated for 48 hrs by DAPI staining based analysis; type: functional, cell-based
[12] = test system: MGC-803; test: Antitumor activity against human MGC-803 cells xenografted in BALB/c nude mouse assessed as reduction in tumor volume at 25 mg/kg/day, ip administered every day for 21 days; type: functional, organism-based; conditions: time 21.0 day
[13] = molecular target: T1, Lysine-specific histone demethylase 1A (Homo sapiens, UniProt O60341); test: Inhibition of LSD1 in human MGC-803 cells assessed as increase in H3K4me2 expression level at 0 to 24 nmol/L incubated for 48 hrs by Western blot analysis; type: cell-based; conditions: dose 0-24 nmol/L
[14] = molecular target: T1, Lysine-specific histone demethylase 1A; test: Inhibition of recombinant LSD1 (unknown origin) using H3K4me2 peptide as substrate preincubated for 10 mins followed by substrate addition and measured after 30 mins by amplex red based fluorescence microplate reader analysis
[15] = test system: MGC-803; test: Induction of apoptosis in human MGC-803 cells assessed as increase in total apoptotic cells incubated for 48 hrs by Annexin-FITC/PI staining based flow cytometry analysis; type: functional, cell-based; conditions: dose 0-24 nmol/L
[16] = test system: MGC-803; test: Induction of apoptosis in human MGC-803 cells assessed as activation of caspase-3 at 0 to 24 nmol/L incubated for 48 hrs by Western blot analysis; type: functional, cell-based; conditions: dose 0-24 nmol/L
[17] = test system: MGC-803; test: Antiproliferative activity against human MGC-803 cells assessed as inhibition of cell growth incubated for 48 hrs by MTT assay
[18] = Toxicity in BALB/c nude mouse xenografted with human MGC-803 cells assessed as reduction in body weight at 25 mg/kg/day, ip administered every day for 21 days; type: organism-based; conditions: in vivo, 504 h, time 21 day
[19] = test system: KYSE-450; test: cells; conditions: Homo sapiens, KYSE-450, 48 h
Description: Antiproliferative activity against human KYSE-450 cells assessed as inhibition of cell growth incubated for 48 hrs by MTT assay

[20] = test system: MGC-803; test: Inhibition of cell migration in human MGC-803 cells assessed as reduction in number of cells crossing membrane at 4 nmol/L measured after 48 hrs by transwell assay; type: functional, cell-based
[21] = test system: SGC-7901; test: Induction of cell cycle arrest in human SGC-7901 cells assessed as downregulation of Wee1 protein expression incubated for 48 hrs by Western blot analysis; type: functional, cell-based; conditions: dose 0-30 nmol/L
[22] = test system: HGC-27; test: Antiproliferative activity against human HGC-27 cells assessed as inhibition of cell growth incubated for 48 hrs by MTT assay; type: functional, cell-based; conditions: HGC-27, 48 h
[23] = test system: GES1; test: Cytotoxicity against human GES1 cells assessed as reduction in cell viability at 0 to 30 nM incubated for 48 hrs by MTT assay; type: toxicity, cell-based; conditions: ges1, 48 h, 0.03 µM, dose 0-30 nM
[24] = test system: MGC-803; test: Induction of apoptosis in human MGC-803 cells assessed as downregulation of Bcl-2 protein expression incubated for 48 hrs by Western blot analysis; type: functional, cell-based; conditions: dose 0-24 nmol/L
[25] = Hepatotoxicity in BALB/c nude mouse xenografted with human MGC-803 cells assessed as effect on ALT level at 25 mg/kg/day, ip administered every day for 21 days; type: toxicity, organism-based; conditions: in vivo, 504 h, time 21 day
[26] = test system: SGC-7901; test: Induction of cell cycle arrest in human SGC-7901 cells assessed as reduction in CDC2 phosphorylation at Thr161 residue at 0 to 30 nmol/L incubated for 48 hrs by Western blot analysis; type: functional, cell-based; conditions: dose 0-30 nmol/L
[27] = test system: MGC-803; test: Induction of apoptosis in human MGC-803 cells assessed as activation of caspase-7 at 0 to 24 nmol/L incubated for 48 hrs by Western blot analysis; type: functional, cell-based; conditions: dose 0-24 nmol/L
[28] = test system: TE-1; test: Antiproliferative activity against human TE-1 cells assessed as inhibition of cell growth incubated for 48 hrs by MTT assay; type: functional, cell-based; conditions: TE-1, 48 h
[29] = molecular target: Tubulin (Homo sapiens) (UniProt P68371+Q9H4B7+P0DPH7+P68366+Q13509+Q71U36+P04350+Q3ZCM7+P07437+P68363+Q9BQE3+Q6PEY2+Q13885+Q9BVA1+Q9BUF5); test: Inhibition of tubulin polymerization in human MGC-803 cells assessed as destruction of microtubule network incubated for 48 hrs by immunofluorescence staining based fluorescence microscopic analysis; type: cell-based; conditions: dose 0-24 nmol/L
[30] = test system: SGC-7901; test: Induction of apoptosis in human SGC-7901 cells assessed as increase in cleaved caspase-3 level at 0 to 30 nmol/L incubated for 48 hrs by Western blot analysis; type: functional, cell-based; conditions: dose 0-30 nmol/L
[31] = molecular target: T1, Lysine-specific histone demethylase 1A; test: Inhibition of LSD1 in human SGC-7901 cells assessed as increase in H3K9me1/2 expression level at 0 to 30 nmol/L incubated for 48 hrs by Western blot analysis; type: cell-based; conditions: dose 0-30 nmol/L
[32] = test system: SGC-7901; test: Induction of morphological changes in human SGC-7901 cells assessed as appearance of bright and shrunken nucleus at 0 to 30 nmol/L incubated for 48 hrs by DAPI staining based analysis; type: functional, cell-based; conditions: dose 0-30 nmol/L
[33] = test system: HCT-116; test: cells; conditions: Homo sapiens, HCT-116, 48 h
Description: Antiproliferative activity against human HCT-116 cells assessed as inhibition of cell growth incubated for 48 hrs by MTT assay

[34] = test system: MGC-803; test: Induction of DNA damage in human MGC-803 cells assessed as DNA fragmentation by measuring increase in comet tails by fluorescence microscope based comet assay; type: functional, cell-based; conditions: dose 0-24 nmol/L
[35] = test system: SGC-7901; test: Induction of cell cycle arrest in human SGC-7901 cells assessed as reduction in cyclin B1 protein expression incubated for 48 hrs by Western blot analysis; type: functional, cell-based; conditions: dose 0-30 nmol/L
[36] = test system: PC-3; test: Antiproliferative activity against human PC-3 cells assessed as inhibition of cell growth incubated for 48 hrs by MTT assay; type: functional, cell-based; conditions: PC-3, 48 h

Q: With `COc1ccc(CN(C(=O)CSC(=S)N2CCN(c3ccc(N)cc3)CC2)c2cc(OC)c(OC)c(OC)c2)cc1O` as the molecule, how does the Activity [1] read?
A: Its Activity is “Active”.

Q: And the Activity [2]?
A: Its Activity is “Dose-Dependent Effect”.

Q: What about the IC50 [3] of the same molecule?
A: The IC50 was 17 nM.

Q: And the IC50 [4]?
A: Its IC50 is 114 nM.

Q: And the Activity [5]?
A: Its Activity is “Active”.

Q: And the Activity [6]?
A: Its Activity is “Dose-Dependent Effect”.

Q: What about the Activity [7] of the same molecule?
A: Its Activity is “Non-Toxic”.

Q: And the inhibition [8]?
A: Its inhibition is “Active”.

Q: What about the Activity [9] of the same molecule?
A: Its Activity is “Active”.

Q: And the Activity [10]?
A: The Activity was 74%.

Q: What about the Activity [11] of the same molecule?
A: The Activity was “Active”.

Q: And the Activity [12]?
A: Its Activity is “Active”.

Q: What about the inhibition [13] of the same molecule?
A: The inhibition was “Active”.

Q: And the IC50 [14]?
A: The IC50 was 2810 nM.

Q: And the Activity [15]?
A: The Activity was “Dose-Dependent Effect”.

Q: What about the Activity [16] of the same molecule?
A: Its Activity is “Active”.

Q: What about the Activity [17] of the same molecule?
A: The Activity was “Dose-Dependent Effect”.

Q: And the Activity [18]?
A: The Activity was “Non-Toxic”.

Q: What about the IC50 [19] of the same molecule?
A: Its IC50 is 30 nM.

Q: What about the inhibition [20] of the same molecule?
A: Its inhibition is “Active”.

Q: And the Activity [21]?
A: The Activity was “Dose-Dependent Effect”.

Q: And the IC50 [22]?
A: Its IC50 is 24.5 nM.

Q: And the Activity [23]?
A: The Activity was “Non-Toxic”.

Q: What about the Activity [24] of the same molecule?
A: Its Activity is “Dose-Dependent Effect”.

Q: And the Activity [25]?
A: The Activity was “Non-Toxic”.

Q: And the Activity [26]?
A: The Activity was “Active”.

Q: And the Activity [27]?
A: The Activity was “Active”.

Q: What about the IC50 [28] of the same molecule?
A: Its IC50 is 31.4 nM.

Q: What about the inhibition [29] of the same molecule?
A: Its inhibition is “Dose-Dependent Effect”.

Q: And the Activity [30]?
A: Its Activity is “Active”.

Q: What about the inhibition [31] of the same molecule?
A: The inhibition was “Active”.

Q: What about the Activity [32] of the same molecule?
A: Its Activity is “Active”.

Q: And the IC50 [33]?
A: The IC50 was 44 nM.

Q: What about the Activity [34] of the same molecule?
A: Its Activity is “Dose-Dependent Effect”.

Q: And the Activity [35]?
A: The Activity was “Dose-Dependent Effect”.

Q: What about the IC50 [36] of the same molecule?
A: Its IC50 is 44.6 nM.

— ChEMBL document CHEMBL5346930, “Discovery of novel N-benzylarylamide-dithiocarbamate based derivatives as dual inhibitors of tubulin polymerization and LSD1 that inhibit gastric cancers” (Eur J Med Chem, 2023)
